# Test results taken from patent US9580411B2, “Substituted sulfonamide compounds” (Hoffmann-La Roche Inc., priority 2012, dated 2017).
# pIC50: −log10 of the molar value.
# Molecular target: T1, hTRPA1 (Homo sapiens (Human), UniProt O75762)
# Assay: Dose response calcium flux assay (FLIPR), ChanTest hTRPA1-CHO stably transfected cell line
# Format: cell-based
# Details: CHO-K1 Tet-On human TRPA1 cells, cinnamaldehyde agonist (final 100 uM)
# How it was run: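 Doxycycline-induced CHO-K1 Tet-On hTRPA1 cells, assayed 24 h post induction, Cal-3 dye loaded. Compounds (top 20 μM 3-fold or 30 μM 2-fold, 11 steps) preincubated 30 min at room temperature, then 100 μM cinnamaldehyde (final) added. FLIPR peak fluorescence increase measured against per-well baseline.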
# T1 sequence (O75762 whole entry): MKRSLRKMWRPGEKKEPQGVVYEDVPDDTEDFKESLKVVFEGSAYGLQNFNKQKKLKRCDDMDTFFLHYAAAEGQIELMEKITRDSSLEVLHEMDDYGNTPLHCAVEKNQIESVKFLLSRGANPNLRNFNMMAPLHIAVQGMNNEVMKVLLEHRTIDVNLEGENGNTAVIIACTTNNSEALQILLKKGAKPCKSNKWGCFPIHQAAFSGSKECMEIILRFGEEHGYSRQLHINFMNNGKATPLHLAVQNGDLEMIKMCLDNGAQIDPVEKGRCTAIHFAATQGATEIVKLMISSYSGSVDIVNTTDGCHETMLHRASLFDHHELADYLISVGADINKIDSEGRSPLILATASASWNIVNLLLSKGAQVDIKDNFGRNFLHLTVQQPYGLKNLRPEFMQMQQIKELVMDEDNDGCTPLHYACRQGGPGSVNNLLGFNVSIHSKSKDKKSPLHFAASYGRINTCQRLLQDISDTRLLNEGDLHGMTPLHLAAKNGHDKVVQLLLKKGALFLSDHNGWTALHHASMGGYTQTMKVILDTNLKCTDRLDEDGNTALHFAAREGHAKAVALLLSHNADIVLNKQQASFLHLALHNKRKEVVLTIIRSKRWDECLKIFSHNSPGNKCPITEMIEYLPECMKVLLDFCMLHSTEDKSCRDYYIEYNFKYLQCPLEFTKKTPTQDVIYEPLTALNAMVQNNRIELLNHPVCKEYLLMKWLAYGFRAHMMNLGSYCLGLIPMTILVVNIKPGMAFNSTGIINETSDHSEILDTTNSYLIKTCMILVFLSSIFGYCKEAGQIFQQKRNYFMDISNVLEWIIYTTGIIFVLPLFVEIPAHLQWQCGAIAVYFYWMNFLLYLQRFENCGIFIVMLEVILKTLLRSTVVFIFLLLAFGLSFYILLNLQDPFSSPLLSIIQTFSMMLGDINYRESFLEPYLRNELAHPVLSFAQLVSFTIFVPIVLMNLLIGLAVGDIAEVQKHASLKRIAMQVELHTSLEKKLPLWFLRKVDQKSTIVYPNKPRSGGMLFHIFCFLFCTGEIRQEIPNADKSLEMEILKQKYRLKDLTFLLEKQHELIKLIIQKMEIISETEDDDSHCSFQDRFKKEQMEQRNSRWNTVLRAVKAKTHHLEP
row,pIC50,Structure (SMILES)
1,7.70,"CC(C)N(CC(=O)NCc1cc(-c2ccc(C(F)(F)F)nc2)ncn1)S(=O)(=O)c1ccc(Cl)s1 [Example 76, 2-[(5-Chloro-thiophene-2-sulfonyl)-isopropyl-amino]-N-[6-(6-trifluoromethyl-pyridin-3-yl)-pyrimidin-4-ylmethyl]-acetamide]"

# Molecular target: T1, hTRPA1
# Assay: IC50 determination on human TRPA1 channel, Hamamatsu FDSS calcium fluorescence, CHO cells
# Format: cell-based
# Details: CHO cells expressing human TRPA1; block of cinnamaldehyde induced calcium influx; Hill coefficient fixed to 1.5; read-out: hTRPA1 AUC IC50
# Protocol: IC50s (effective concentration) of compounds on the human TRPA1 channel were determined using a Hamamatsu FDSS fluorescence plate reader. CHO cells expressing human TRPA1 were plated into 384-well plates, incubated overnight at 37° C., and loaded with BD calcium indicator dye for 1 hr at 37° C. followed by 15 minutes at room temperature. The assay buffer was Hank's Balanced Salt Solution (HBSS) containing 20 mM HEPES (pH readjusted to 7.4) along with 0.02% BSA.
# Following dye load and plate cool down, compounds were added to the cells using the FDSS while monitoring fluorescence to determine whether any of the test compounds have TRPA1 agonist activity. Plates were then incubated with compound for 20 minutes at room temperature prior to adding agonist. Following this incubation, […] cinnamaldehyde was added to all wells of the plate and block of this cinnamaldehyde induced calcium influx was measured.
# Fixing the Hill coefficient will generally reduce variability of the IC50 determination. The IC50s were examined by eye to make sure the MIN and MAX points were set correctly prior to validation of the results.
row,Structure (SMILES),pIC50
1,"CC(C)N(CC(=O)NCc1cccc(-c2cnc(N3CCC[C@H]3C)nc2)c1)S(=O)(=O)c1ccc(F)cc1 (single isomer, unassigned) [79-(R)]",7.26
2,"CC(C)N(CC(=O)NCc1cccc(-c2cnc(N3CCC[C@@H]3C)nc2)c1)S(=O)(=O)c1ccc(F)cc1 (single isomer, unassigned) [79-(S)]",7.42
3,"CC(C)N(CC(=O)NCc1cccc(N2CCCC2)c1)S(=O)(=O)c1ccc(F)cc1 [Example 77, 2-(4-fluoro-N-isopropylphenylsulfonamido)-N-(3-(pyrrolidin-1-yl)benzyl)acetamide]",6.05
4,"CC(C)N(CC(=O)NCc1cccc(C2CC2)c1)S(=O)(=O)c1ccc(F)cc1 [Example 78, N-(3-cyclopropylbenzyl)-2-(4-fluoro-N-isopropylphenylsulfonamido)acetamide]",6.00
5,"CC(C)N(CC(=O)NCc1cc(N2CCC(C(F)(F)F)CC2)ncn1)S(=O)(=O)c1ccc(F)cc1 [Example 80, 2-(4-Fluoro-N-isopropylphenylsulfonamido)-N-((6-(4-(trifluoromethyl)piperidin-1-yl)pyrimidin-4-yl)methyl)acetamide]",6.60
6,"CC(C)N(CC(=O)NCc1cc(N2CCC(F)(F)CC2)ncn1)S(=O)(=O)c1ccc(F)cc1 [Example 81, N-((6-(4,4-Difluoropiperidin-1-yl)pyrimidin-4-yl)methyl)-2-(4-fluoro-N-isopropylphenylsulfonamido)acetamide]",5.52
7,"CC(C)N(CC(=O)NCc1cccc(-c2ccc(C(F)(F)F)cc2)c1)S(=O)(=O)c1ccn(C)n1 [Example 82, 2-(N-Isopropyl-1-methyl-1H-pyrazole-3-sulfonamido)-N-((4′-(trifluoromethyl)biphenyl-3-yl)methyl)acetamide]",5.62
8,"[2H]C([2H])(C(=O)NCc1cc(-c2ccc(C(F)(F)F)nc2)ncn1)N(C(C)C)S(=O)(=O)c1ccc(F)cc1 [Example 83, 2,2-Dideuterio-2-(4-fluoro-N-isopropylphenylsulfonamido)-N-((6-(6-(trifluoromethyl)pyridin-3-yl)pyrimidin-4-yl)methyl)acetamide]",7.24
9,"CC(C)N(C1(C(=O)NCc2cc(-c3ccc(C(F)(F)F)nc3)ncn2)CC1)S(=O)(=O)c1ccc(F)cc1 [Example 84, 1-(4-Fluoro-N-isopropylphenylsulfonamido)-N-((6-(6-(trifluoromethyl)pyridin-3-yl)pyrimidin-4-yl)methyl)cyclopropanecarboxamide]",7.54
10,"O=C(CN(c1ccc(F)cc1)S(=O)(=O)c1ccc(F)cc1)NCc1cc(-c2ccc(C(F)(F)F)nc2)ncn1 [Example 86, 2-(4-fluoro-N-(4-fluorophenyl)phenylsulfonamido)-N-((6-(6-(trifluoromethyl)pyridin-3-yl)pyrimidin-4-yl)methyl)acetamide]",8.05
